Assay results reported in ChEMBL document CHEMBL1687822, “Inhibition of bacterial multidrug resistance by celecoxib, a cyclooxygenase-2 inhibitor” (2011).

Assays:
[1] = test system: Mycolicibacterium smegmatis; test: Antibacterial activity against Mycobacterium smegmatis MC2 155 ATCC; type: functional
Staphylococcus aureus [2] = test: Antibacterial activity against methicillin-resistant Staphylococcus aureus ATCC 335913; type: functional
Staphylococcus aureus [3] = test: Antibacterial activity against Staphylococcus aureus ATCC 29213; type: functional
[4] = test system: Mycolicibacterium smegmatis MC2 155; test: Inhibition of MDR1-mediated Mycobacterium smegmatis MC2 155 ATCC assessed as fractional inhibitory concentration index after 24 to 48 hrs in presence of ampicillin
[5] = test system: Mycolicibacterium smegmatis MC2 155; test: Inhibition of MDR1-mediated Mycobacterium smegmatis MC2 155 ATCC assessed as fractional inhibitory concentration index after 24 to 48 hrs in presence of kanamycin
[6] = test system: Mycolicibacterium smegmatis MC2 155; test: Inhibition of MDR1 in Mycobacterium smegmatis ATCC MC2155 assessed as increase in accumulation of ampicillin by EtBr efflux using flow cytometer
Staphylococcus aureus [7] = test: Inhibition of MDR1-mediated […] in Staphylococcus aureus ATCC 29213 assessed as fractional inhibitory concentration index after 24 to 48 hrs in presence of kanamycin
Staphylococcus aureus [8] = test: Inhibition of MDR1-mediated methicillin-resistant Staphylococcus aureus ATCC 335913 assessed as fractional inhibitory concentration index after 24 to 48 hrs in presence of ciprofloxacin
Staphylococcus aureus [9] = test: Inhibition of MDR1 in Staphylococcus aureus ATCC 29213 assessed as increase in accumulation of chloramphenicol by EtBr efflux using flow cytometer
Staphylococcus aureus [10] = test: Inhibition of MDR1 in Staphylococcus aureus ATCC 29213 assessed as increase in accumulation of ciprofloxacin by EtBr efflux using flow cytometer
Staphylococcus aureus [11] = test: Inhibition of MDR1-mediated […] in Staphylococcus aureus ATCC 29213 assessed as fractional inhibitory concentration index after 24 to 48 hrs in presence of ampicillin
Staphylococcus aureus [12] = test: Inhibition of MDR1 in methicillin-resistant Staphylococcus aureus ATCC 335913 assessed as increase in accumulation of chloramphenicol by EtBr efflux using flow cytometer
Staphylococcus aureus [13] = test: Inhibition of MDR1 in methicillin-resistant Staphylococcus aureus ATCC 335913 assessed as increase in accumulation of ciprofloxacin by EtBr efflux using flow cytometer
[14] = test system: Mycolicibacterium smegmatis MC2 155; test: Inhibition of MDR1-mediated Mycobacterium smegmatis MC2 155 ATCC assessed as fractional inhibitory concentration index after 24 to 48 hrs in presence of ciprofloxacin
Staphylococcus aureus [15] = test: Inhibition of MDR1-mediated […] in Staphylococcus aureus ATCC 29213 assessed as fractional inhibitory concentration index after 24 to 48 hrs in presence of ciprofloxacin
Staphylococcus aureus [16] = test: Inhibition of MDR1 in methicillin-resistant Staphylococcus aureus ATCC 335913 assessed as increase in accumulation of kanamycin by EtBr efflux using flow cytometer
[17] = test system: Mycolicibacterium smegmatis MC2 155; test: Inhibition of MDR1 in Mycobacterium smegmatis ATCC MC2155 assessed as increase in accumulation of kanamycin by EtBr efflux using flow cytometer
Staphylococcus aureus [18] = test: Inhibition of MDR1 in Staphylococcus aureus ATCC 29213 assessed as increase in accumulation of ampicillin by EtBr efflux using flow cytometer
[19] = test system: Mycolicibacterium smegmatis MC2 155; test: Inhibition of MDR1 in Mycobacterium smegmatis ATCC MC2155 assessed as increase in accumulation of ciprofloxacin by EtBr efflux using flow cytometer
[20] = test system: Mycolicibacterium smegmatis MC2 155; test: Inhibition of MDR1 in Mycobacterium smegmatis ATCC MC2155 assessed as increase in accumulation of chloramphenicol by EtBr efflux using flow cytometer
Staphylococcus aureus [21] = test: Inhibition of MDR1 in methicillin-resistant Staphylococcus aureus ATCC 335913 assessed as increase in accumulation of ampicillin by EtBr efflux using flow cytometer
[22] = test system: Mycolicibacterium smegmatis MC2 155; test: Inhibition of MDR1-mediated Mycobacterium smegmatis MC2 155 ATCC assessed as fractional inhibitory concentration index after 24 to 48 hrs in presence of chloramphenicol
Staphylococcus aureus [23] = test: Inhibition of MDR1-mediated […] in Staphylococcus aureus ATCC 29213 assessed as fractional inhibitory concentration index after 24 to 48 hrs in presence of chloramphenicol
Staphylococcus aureus [24] = test: Inhibition of MDR1-mediated methicillin-resistant Staphylococcus aureus ATCC 335913 assessed as fractional inhibitory concentration index after 24 to 48 hrs in presence of ampicillin
Staphylococcus aureus [25] = test: Inhibition of MDR1-mediated methicillin-resistant Staphylococcus aureus ATCC 335913 assessed as fractional inhibitory concentration index after 24 to 48 hrs in presence of kanamycin
Staphylococcus aureus [26] = test: Inhibition of MDR1-mediated methicillin-resistant Staphylococcus aureus ATCC 335913 assessed as fractional inhibitory concentration index after 24 to 48 hrs in presence of chloramphenicol
Staphylococcus aureus [27] = test: Inhibition of MDR1 in Staphylococcus aureus ATCC 29213 assessed as increase in accumulation of kanamycin by EtBr efflux using flow cytometer

**Q.** `O=C(N[C@H](CO)[C@H](O)c1ccc([N+](=O)[O-])cc1)C(Cl)Cl` [CHLORAMPHENICOL] was tested. Which MIC [1] did it give?
**A.** 10 µg/mL

**Q.** And the MIC (Staphylococcus aureus [2])?
**A.** 100 µg/mL

**Q.** What about the MIC (Staphylococcus aureus [3]) of the same molecule?
**A.** 5 µg/mL

**Q.** How did the MIC [1] turn out when `CC1(C)S[C@@H]2[C@H](NC(=O)[C@H](N)c3ccccc3)C(=O)N2[C@H]1C(=O)O` [AMPICILLIN] was run?
**A.** 250 µg/mL

**Q.** What about the MIC (Staphylococcus aureus [2]) of the same molecule?
**A.** 200 µg/mL

**Q.** And the MIC (Staphylococcus aureus [3])?
**A.** 5 µg/mL

**Q.** `NC[C@H]1O[C@H](O[C@H]2[C@H](O)[C@@H](O[C@H]3O[C@H](CO)[C@@H](O)[C@H](N)[C@H]3O)[C@H](N)C[C@@H]2N)[C@H](O)[C@@H](O)[C@@H]1O` [KANAMYCIN] was tested. Which MIC [1] did it give?
**A.** 0.5 µg/mL

**Q.** And the MIC (Staphylococcus aureus [2])?
**A.** 100 µg/mL

**Q.** What about the MIC (Staphylococcus aureus [3]) of the same molecule?
**A.** 10 µg/mL

**Q.** For `O=C(O)c1cn(C2CC2)c2cc(N3CCNCC3)c(F)cc2c1=O` [CIPROFLOXACIN], which MIC [1] is on record?
**A.** 0.5 µg/mL

**Q.** And the MIC (Staphylococcus aureus [2])?
**A.** 0.25 µg/mL

**Q.** What about the MIC (Staphylococcus aureus [3]) of the same molecule?
**A.** 0.25 µg/mL

**Q.** `Cc1ccc(-c2cc(C(F)(F)F)nn2-c2ccc(S(N)(=O)=O)cc2)cc1` [CELECOXIB] was tested. Which fractional inhibitory concentration index (FICI) [4] did it give?
**A.** 0.0665

**Q.** What about the fractional inhibitory concentration index (FICI) [5] of the same molecule?
**A.** 0.312

**Q.** What about the inhibition [6] of the same molecule?
**A.** Dose-dependent effect

**Q.** And the fractional inhibitory concentration index (FICI) (Staphylococcus aureus [7])?
**A.** 0.531

**Q.** And the fractional inhibitory concentration index (FICI) (Staphylococcus aureus [8])?
**A.** 0.312

**Q.** What about the inhibition (Staphylococcus aureus [9]) of the same molecule?
**A.** Dose-dependent effect

**Q.** And the MIC [1]?
**A.** > 100 µM

**Q.** And the inhibition (Staphylococcus aureus [10])?
**A.** Dose-dependent effect

**Q.** And the fractional inhibitory concentration index (FICI) (Staphylococcus aureus [11])?
**A.** 0.281

**Q.** And the inhibition (Staphylococcus aureus [12])?
**A.** Dose-dependent effect

**Q.** What about the inhibition (Staphylococcus aureus [13]) of the same molecule?
**A.** Dose-dependent effect

**Q.** What about the fractional inhibitory concentration index (FICI) [14] of the same molecule?
**A.** 0.188

**Q.** What about the fractional inhibitory concentration index (FICI) (Staphylococcus aureus [15]) of the same molecule?
**A.** 0.281

**Q.** What about the inhibition (Staphylococcus aureus [16]) of the same molecule?
**A.** Dose-dependent effect

**Q.** What about the inhibition [17] of the same molecule?
**A.** Dose-dependent effect

**Q.** And the inhibition (Staphylococcus aureus [18])?
**A.** Dose-dependent effect

**Q.** What about the MIC (Staphylococcus aureus [2]) of the same molecule?
**A.** > 100 µM

**Q.** What about the inhibition [19] of the same molecule?
**A.** Dose-dependent effect

**Q.** What about the inhibition [20] of the same molecule?
**A.** Dose-dependent effect

**Q.** And the inhibition (Staphylococcus aureus [21])?
**A.** Dose-dependent effect

**Q.** What about the fractional inhibitory concentration index (FICI) [22] of the same molecule?
**A.** 0.562

**Q.** What about the fractional inhibitory concentration index (FICI) (Staphylococcus aureus [23]) of the same molecule?
**A.** 0.281

**Q.** What about the fractional inhibitory concentration index (FICI) (Staphylococcus aureus [24]) of the same molecule?
**A.** 0.312

**Q.** And the fractional inhibitory concentration index (FICI) (Staphylococcus aureus [25])?
**A.** 0.312

**Q.** And the fractional inhibitory concentration index (FICI) (Staphylococcus aureus [26])?
**A.** 0.312

**Q.** What about the MIC (Staphylococcus aureus [3]) of the same molecule?
**A.** > 100 µM

**Q.** And the inhibition (Staphylococcus aureus [27])?
**A.** Dose-dependent effect
